Results taken from patent publication US6403586B1, “Pyridazine derivatives and drugs containing the same as the active ingredient” (Kowa Co., Ltd., priority 1998, dated 2002).

Compound	melting point
CCOC(=O)c1cc(-c2ccc(OC)cc2)nn(CC=Cc2ccc(Cl)cc2)c1=O [Example 31, 2-(4-Chlorocinnamyl)-4-ethoxycarbonyl-6-(4-methoxyphenyl)-2H-pyridazin-3-one]	127 to 127.9 °C
CCOC(=O)c1cc(-c2ccc(OC)cc2)nn(C(C)C)c1=O [Example 9, 4-Ethoxycarbonyl-2-isopropyl-6-(4-methoxyphenyl)-2H-pyridazin-3-one]	140.6 to 141.1 °C
COc1ccc(-c2cc(C(=O)Nc3ccncc3)c(=O)n(CC3CC3)n2)cc1 [Example 70, 2-Cyclopropylmethyl-6-(4-methoxyphenyl)-4-(4-pyridyl)carbamoyl-2H-pyridazin-3-one]	181.3 to 181.5 °C
COc1ccc(-c2cc(C(N)=O)c(=O)n(CC=Cc3ccc(Cl)cc3)n2)cc1 [Example 42, 4-Carbamoyl-2-(4-chlorocinnamyl)-6-(4-methoxyphenyl)-2H-pyridazin-3-one]	195.1 to 195.5 °C
COC(=O)c1cc(-c2ccc(OC)c(F)c2)nn(CC2CC2)c1=O [Example 18, 2-Cyclopropylmethyl-6-(3-fluoro-4-methoxyphenyl)-4-methoxycarbonyl-2H-pyridazin-3-one]	139.6 to 140.7 °C
COC(=O)c1cc(-c2ccc(OC)c(OC)c2)nn(CC2CC2)c1=O [Example 17, 2-Cyclopropylmethyl-6-(3,4-dimethoxyphenyl)-4-methoxycarbonyl-2H-pyridazin-3-one]	136.5 to 137.3 °C
CCOC(=O)c1cc(-c2ccc(OC)cc2)nn(CC2CC2)c1=O [Example 16, 2-Cyclopropylmethyl-4-ethoxycarbonyl-6-(4-methoxyphenyl)-2H-pyridazin-3-one]	80.1 to 80.9 °C
CCCNC(=O)c1cc(-c2ccc(OC)cc2)nn(CC2CC2)c1=O [Example 67, 2-Cyclopropylmethyl-6-(4-methoxyphenyl)-4-n-propylcarbamoyl-2H-pyridazin-3-one]	101.3 to 101.6 °C
CNC(=O)c1cc(-c2ccc(OC)cc2)nn(CC=C(C)C)c1=O [Example 57, 6-(4-Methoxyphenyl)-2-(3-methyl-2-butenyl)-4-methylcarbamoyl-2H-pyridazin-3-one]	103.6 to 104 °C
CCOC(=O)c1cc(-c2ccc(OC)cc2)nn(Cc2ccc(Cl)cc2Cl)c1=O [Example 24, 2-(2,4-Dichlorobenzyl)-4-ethoxycarbonyl-6-(4-methoxyphenyl)-2H-pyridazin-3-one]	135.7 to 136.3 °C
CNC(=O)c1cc(-c2ccc(OC)cc2)nn(CC(=O)NCCO)c1=O [Example 59, 2-(2-Hydroxyethyl)carbamoylmethyl-6-(4-methoxyphenyl)-4-methylcarbamoyl-2H-pyridazin-3-one]	240.2 to 241.2 °C
CCOC(=O)c1cc(-c2ccc(OC)cc2)nn(CC(C)C)c1=O [Example 10, 4-Ethoxycarbonyl-2-isobutyl-6-(4-methoxyphenyl)-2H-pyridazin-3-one]	83 to 83.3 °C
CNC(=O)c1cc(-c2ccc(OC)cc2)nn(CC#N)c1=O [Example 46, 2-Cyanomethyl-6-(4-methoxyphenyl)-4-methylcarbamoyl-2H-pyridazin-3-one]	153.4 to 154.9 °C
COC(=O)c1cc(-c2ccc(OC)cc2)nn(Cc2ccc(NC(=O)c3cccnc3)cc2)c1=O [Example 27, 4-Methoxycarbonyl-6-(4-methoxyphenyl)-2-[4-(3-pyridylcarbonylamino)benzyl]-2H-pyridazin-3-one]	235.7 to 236.9 °C (dec.)
COC(=O)c1cc(-c2ccc(OC)c(Cl)c2)nn(CC=Cc2ccc(Cl)cc2)c1=O [Example 34, 2-(4-Chlorocinnamyl)-6-(3-chloro-4-methoxyphenyl)-4-methoxycarbonyl-2H-pyridazin-3-one]	179.7 to 181.6 °C
COC(=O)c1cc(-c2ccc(OC)cc2)nn(Cc2ccc(N)cc2)c1=O [Example 26, 2-(4-Aminobenzyl)-4-methoxycarbonyl-6-(4-methoxyphenyl)-2H-pyridazin-3-one]	160 to 161.9 °C
COc1ccc(-c2cc(C(=O)Nc3ccccc3)c(=O)n(CC3CC3)n2)cc1 [Example 71, 2-Cyclopropylmethyl-6-(4-methoxyphenyl)-4-phenylcarbamoyl-2H-pyridazin-3-one]	162.8 to 163.3 °C
COC(=O)c1cc(-c2ccc(OC)c(OC)c2)nn(CC=Cc2ccc(Cl)cc2)c1=O [Example 32, 2-(4-Chlorocinnamyl)-6-(3,4-dimethoxyphenyl)-4-methoxycarbonyl-2H-pyridazin-3-one]	117.5 to 118.7 °C
CNC(=O)c1cc(-c2ccc(OC)cc2)nn(C(C)C)c1=O [Example 52, 2-Isopropyl-6-(4-methoxyphenyl)-4-methylcarbamoyl-2H-pyridazin-3-one]	154 to 154.3 °C
COc1ccc(-c2cc(C(N)=O)c(=O)n(CC3CC3)n2)cc1 [Example 39, 4-Carbamoyl-2-cyclopropylmethyl-6-(4-methoxyphenyl)-2H-pyridazin-3-one]	182.2 to 183.3 °C
COC(=O)c1cc(-c2ccc(OC)cc2)nn(C)c1=O [Example 1, 4-Methoxycarbonyl-6-(4-methoxyphenyl)-2-methyl-2H-pyridazin-3-one]	109.2 to 109.5 °C
CNC(=O)c1cc(-c2ccc(SC)cc2)nn(CC2CC2)c1=O [Example 65, 2-Cyclopropylmethyl-4-methylcarbamoyl-6-[4-(methylthio)phenyl]-2H-pyridazin-3-one]	116.5 to 118 °C
CNC(=O)c1cc(-c2ccc(OC)cc2)nn(CCO)c1=O [Example 49, 2-(2-Hydroxyethyl)-6-(4-methoxyphenyl)-4-methylcarbamoyl-2H-pyridazin-3-one]	160.3 to 160.6 °C

Now from value to molecule:

melting point	Compound
119.1 to 119.6 °C	CCOC(=O)Nc1cc(-c2ccc(OC)cc2)nn(CC2CC2)c1=O [Example 95, 2-cyclopropylmethyl-4-ethoxycarbonylamino-6-(4-methoxyphenyl)-2H-pyridazin-3-one]
200.2 to 201 °C	COc1ccc(-c2cc(NC(=O)NC(C)C)c(=O)n(Cc3ccccc3)n2)cc1 [Example 123, 2-benzyl-4-(3-isopropylureido)-6-(4-methoxyphenyl)-2H-pyridazin-3-one]
122.4 to 122.9 °C	COc1ccc(-c2cc(C(=O)NCc3ccccn3)c(=O)n(C)n2)cc1 [Example 78, 6-(4-Methoxyphenyl)-2-methyl-4-(2-pyridylmethyl)carbamoyl-2H-pyridazin-3-one]
148.4 to 149.2 °C	CNc1cc(-c2ccc(OC)cc2)nn(CC=Cc2ccc(Cl)cc2)c1=O [Example 117, 2-(4-chlorocinnamyl)-6-(4-methoxyphenyl)-4-methylamino-2H-pyridazin-3-one]
107.4 to 107.8 °C	CNC(=O)c1cc(-c2ccc(OC)cc2)nn(CC2CCCC2)c1=O [Example 72, 2-Cyclopentylmethyl-6-(4-methoxyphenyl)-4-methylcarbamoyl-2H-pyridazin-3-one]
123.9 to 127.4 °C	COc1ccc(-c2cc(NC(=O)OC(C)C)c(=O)n(CC=Cc3ccc(Cl)cc3)n2)cc1 [Example 88, 2-(4-chlorocinnamyl)-6-(4-methoxyphenyl)-4-isopropoxycarbonylamino-2H-pyridazin-3-one]
153.5 to 156.6 °C	COc1ccc(-c2cc(C(=O)O)c(=O)n(CC=C(C)C)n2)cc1 [Example 92, 4-carboxy-6-(4-methoxyphenyl)-2-(3-methyl-2-butenyl)-2H-pyridazin-3-one]
190.5 to 191.7 °C	COc1ccc(-c2cc(NC(=O)OCc3ccccc3)c(=O)n(CC=Cc3ccc(Cl)cc3)n2)cc1 [Example 90, 4-benzyloxycarbonylamino-2-(4-chlorocinnamyl)-6-(4-methoxyphenyl)-2H-pyridazin-3-one]
113.5 to 114.2 °C	COc1ccc(-c2cc(NC(=O)OCCCCCc3ccccc3)c(=O)n(CC=Cc3ccc(Cl)cc3)n2)cc1 [Example 118, 2-(4-chlorocinnamyl)-6-(4-methoxyphenyl)-4-[N-(3-phenylpropyl)ethoxycarbonylamino]-2H-pyridazin-3-one]
226.7 to 227.6 °C (dec.)	CNC(=O)c1cc(-c2ccc(OC)cc2)nn(Cc2ccc(NC(=O)c3cccnc3)cc2)c1=O [Example 81, 6-(4-Methoxyphenyl)-4-methylcarbamoyl-2-[4-(3-pyridylcarbonylamino)benzyl]-2H-pyridazin-3-one]
203.3 to 203.9 °C	COc1ccc(-c2cc(NS(C)(=O)=O)c(=O)n(CC3CC3)n2)cc1 [Example 126, 2-cyclopropylmethyl-4-methanesulfonylamino-6-(4-methoxyphenyl)-2H-pyridazin-3-one]
107.6 to 108.1 °C	COc1ccc(-c2cc(C(=O)NCc3ccccc3)c(=O)n(CC3CCCC3)n2)cc1 [Example 75, 4-Benzylcarbamoyl-2-cyclopentylmethyl-6-(4-methoxyphenyl)-2H-pyridazin-3-one]
115.1 to 115.6 °C	COc1ccc(-c2cc(N)c(=O)n(Cc3ccccc3)n2)cc1 [Example 121, 4-amino-2-benzyl-6-(4-methoxyphenyl)-2H-pyridazin-3-one]
158.7 to 161.9 °C	COc1ccc(-c2cc(NC(C)=O)c(=O)n(CC=Cc3ccc(Cl)cc3)n2)cc1 [Example 113, 4-acetylamino-2-(4-chlorocinnamyl)-6-(4-methoxyphenyl)-2H-pyridazin-3-one]
154.2 to 156.2 °C	CNC(=O)c1cc(-c2ccc(OC)cc2)nn(Cc2ccc(Cl)cc2Cl)c1=O [Example 82, 2-(2,4-Dichlorobenzyl)-6-(4-methoxy-phenyl)-4-methylcarbamoyl-2H-pyridazin-3-one]
110.8 to 111.3 °C	COc1ccc(-c2cc(N)c(=O)n(CC3CC3)n2)cc1 [Example 124, 4-amino-2-cyclopropylmethyl-6-(4-methoxyphenyl)-2H-pyridazin-3-one]
195.8 to 197 °C	COc1ccc(-c2cc(NC(=O)NC(C)C)c(=O)n(CC3CC3)n2)cc1 [Example 125, 2-cyclopropylmethyl-4-(3-isopropylureido)-6-(4-methoxyphenyl)-2H-pyridazin-3-one]
130.2 to 131.2 °C	CCOC(=O)Nc1cc(-c2ccc(OC)cc2)nn(CC=C(C)C)c1=O [Example 93, 4-ethoxycarbonylamino-6-(4-methoxy-phenyl)-2-(3-methyl-2-butenyl)-2H-pyridazin-3-one]
